Experimental data published in paper PMC11775380, “Discovery of Novel Nav1.7-Selective Inhibitors with the 1H-Indole-3-Propionamide Scaffold for Effective Pain Relief” (Research, 2025).

Experiments:
[1] = molecular target: T1, Nav1.7 Y1548A/F1609A (Homo sapiens, UniProt Q15858, F1609A/Y1548A); experiment: Multiple site-directed mutagenesis, inhibition by patch clamp; format: cell-based; settings: 1 μM
T1 construct: expressed in transfected cells; host or cells: HEK293T
Excerpt: (§1) To further investigate the roles of these residues in WN2-R binding, 3 combinations of double or triple site-directed mutagenesis were introduced, including Y1548A/F1609A (to investigate the function of phenyl ring-containing residues surrounding WN2-R, Fig. 4E), E1545A/E1600A (to examine the importance of negatively charged residues at the binding site entrance, Fig. 4F), and Y1548A/V1552A/M1593A (to understand the role of the outer hydrophobic wall formed by these residues in ligand binding, Fig. 4G).
(§2) Whole-cell patch-clamp recordings were conducted at 25 ± 2 °C, utilizing an EPC 10USB patch-clamp amplifier (HEKA Elektronik, Lambrecht, Germany). Pipettes, with access resistance between 2.0 and 3.0 MΩ, were pulled from borosilicate glass capillary tubes using a 2-step vertical microelectrode puller (PC-10, Narishige Group, Tokyo, Japan). Voltage-clamp recordings were obtained with PatchMaster software v2 × 73 (HEKA Elektronik) 5 min after establishing whole-cell configuration, sampled at 20 kHz, and filtered at 5 kHz. To minimize voltage errors, 80% series resistance compensation was applied. Pipettes were filled with 140 mM CsF, 10 mM NaCl, 1 mM EGTA, and 10 mM HEPES (pH=7.4, adjusted with CsOH). The external solution contained 140 mM NaCl, 2 mM CaCl2, 1 mM MgCl2, 5 mM KCl, 10 mM HEPES, and 10 mM glucose (pH=7.4, adjusted with NaOH). IC50 values were determined in HEK293T or ND7/23 cell lines by voltage clamping at −80 mV, followed by stepping to the V1/2 of inactivation for 8 s to facilitate compound binding.

[2] = molecular target: T2, Nav1.7 Y1548A/V1552A/M1593A (Homo sapiens, UniProt Q15858, M1593A/V1552A/Y1548A); experiment: as above; format: cell-based; settings: 1 μM
T2 construct: expressed in transfected cells; host or cells: HEK293T
T2 sequence (Q15858 whole entry Y1548A/V1552A/M1593A): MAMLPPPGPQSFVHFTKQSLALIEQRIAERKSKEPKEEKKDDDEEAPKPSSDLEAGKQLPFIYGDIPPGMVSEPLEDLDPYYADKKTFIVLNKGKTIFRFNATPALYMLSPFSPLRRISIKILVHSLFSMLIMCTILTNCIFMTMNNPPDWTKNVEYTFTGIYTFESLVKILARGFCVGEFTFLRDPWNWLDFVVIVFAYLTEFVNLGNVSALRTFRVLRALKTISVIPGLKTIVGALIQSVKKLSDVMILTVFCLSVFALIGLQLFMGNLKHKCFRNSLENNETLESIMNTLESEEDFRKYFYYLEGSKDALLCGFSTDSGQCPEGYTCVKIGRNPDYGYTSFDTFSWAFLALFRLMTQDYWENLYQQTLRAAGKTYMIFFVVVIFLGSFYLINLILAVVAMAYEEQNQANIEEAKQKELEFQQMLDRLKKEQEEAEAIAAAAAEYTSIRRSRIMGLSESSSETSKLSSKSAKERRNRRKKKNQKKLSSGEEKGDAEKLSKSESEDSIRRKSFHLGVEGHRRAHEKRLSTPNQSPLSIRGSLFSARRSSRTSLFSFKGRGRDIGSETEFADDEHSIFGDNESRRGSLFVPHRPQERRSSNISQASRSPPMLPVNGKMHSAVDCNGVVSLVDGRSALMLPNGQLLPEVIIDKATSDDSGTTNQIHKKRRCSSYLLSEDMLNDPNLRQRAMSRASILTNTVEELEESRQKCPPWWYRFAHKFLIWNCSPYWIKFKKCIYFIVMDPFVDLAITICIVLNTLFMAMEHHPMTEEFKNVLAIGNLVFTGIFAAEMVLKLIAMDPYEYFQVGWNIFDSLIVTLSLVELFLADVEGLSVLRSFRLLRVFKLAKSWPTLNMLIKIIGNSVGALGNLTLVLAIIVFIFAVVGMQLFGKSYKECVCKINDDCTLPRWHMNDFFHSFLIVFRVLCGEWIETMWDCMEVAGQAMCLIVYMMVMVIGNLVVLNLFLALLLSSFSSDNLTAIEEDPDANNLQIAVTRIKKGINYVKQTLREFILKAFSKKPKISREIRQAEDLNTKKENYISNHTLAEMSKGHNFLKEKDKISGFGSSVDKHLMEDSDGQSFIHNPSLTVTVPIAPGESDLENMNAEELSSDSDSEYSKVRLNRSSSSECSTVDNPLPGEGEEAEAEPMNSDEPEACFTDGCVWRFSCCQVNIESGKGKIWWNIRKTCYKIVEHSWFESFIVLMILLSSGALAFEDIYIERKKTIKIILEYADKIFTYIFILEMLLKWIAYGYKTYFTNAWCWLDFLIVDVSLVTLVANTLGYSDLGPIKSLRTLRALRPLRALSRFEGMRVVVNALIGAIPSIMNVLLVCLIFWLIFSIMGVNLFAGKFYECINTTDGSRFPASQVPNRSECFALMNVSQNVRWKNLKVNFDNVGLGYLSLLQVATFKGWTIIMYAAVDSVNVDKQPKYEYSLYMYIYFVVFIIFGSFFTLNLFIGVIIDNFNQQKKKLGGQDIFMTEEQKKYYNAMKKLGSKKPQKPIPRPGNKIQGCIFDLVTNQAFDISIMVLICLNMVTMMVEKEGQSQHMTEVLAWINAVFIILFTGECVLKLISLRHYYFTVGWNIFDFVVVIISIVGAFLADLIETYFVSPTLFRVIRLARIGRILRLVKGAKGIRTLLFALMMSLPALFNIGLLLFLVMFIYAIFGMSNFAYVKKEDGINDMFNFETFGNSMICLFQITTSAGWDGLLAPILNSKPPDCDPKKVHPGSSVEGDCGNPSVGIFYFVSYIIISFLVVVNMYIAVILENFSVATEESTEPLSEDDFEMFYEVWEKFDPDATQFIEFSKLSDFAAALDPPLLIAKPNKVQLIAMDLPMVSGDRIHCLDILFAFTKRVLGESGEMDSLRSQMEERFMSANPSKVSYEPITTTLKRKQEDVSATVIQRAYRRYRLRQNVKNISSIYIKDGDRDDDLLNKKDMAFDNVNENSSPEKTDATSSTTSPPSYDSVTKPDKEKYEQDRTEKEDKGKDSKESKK
T2 sequence (Q07699 19-218 partner): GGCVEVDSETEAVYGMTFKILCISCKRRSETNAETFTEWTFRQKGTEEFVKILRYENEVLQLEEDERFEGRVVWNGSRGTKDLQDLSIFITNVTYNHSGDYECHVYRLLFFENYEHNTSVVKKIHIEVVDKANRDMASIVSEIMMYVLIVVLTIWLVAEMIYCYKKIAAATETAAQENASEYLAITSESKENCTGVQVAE
T2 sequence (O60939 30-215 partner): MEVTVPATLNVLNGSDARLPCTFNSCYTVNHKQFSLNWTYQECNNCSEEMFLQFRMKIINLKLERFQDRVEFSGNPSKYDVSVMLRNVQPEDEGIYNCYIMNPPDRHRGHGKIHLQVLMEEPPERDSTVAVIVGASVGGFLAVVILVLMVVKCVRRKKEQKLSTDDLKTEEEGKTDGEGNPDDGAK
Excerpt: as §1, §2

[3] = tested on: small (<30 μm) DRG neurons; experiment: Current-clamp recording of action potential firing (membrane excitability); format: cell-based, mouse; settings: 10 μM
Method: To investigate the mechanism of action of WN2-R and facilitate animal model experiments, we used voltage-clamp recording to test the effects of WN2-R on the native Na^+-, K^+-, and Ca^2+-mediated currents in DRG neurons. […] Furthermore, the effects of WN2-R on membrane excitability were examined in small (<30 μm) DRG neurons from mice using current-clamp recordings.
DRG isolation and culture were performed according to our previous report. Briefly, C57BL/6 mice (weight 18 to 20 g, 6 to 8 weeks) were euthanized via cervical dislocation under anesthesia. Lumbar DRGs were isolated from the L4 to L5 segments of the lumbar spinal cord. The DRG neurons were subsequently dissociated through enzymatic digestion with collagenase (0.32 mg/ml) and trypsin (0.15 mg/ml) at 37 °C for 30 min, with intermittent shaking. After centrifugation at 800 rpm for 5 min at room temperature, the cells were seeded onto poly-L-lysine-coated coverslips and cultured in DMEM (Gibco) supplemented with 10% fetal bovine serum (Gibco). […]
For recording Nav currents of DRG neurons, the bath solution contains (in mM) 30 NaCl, 1 MgCl2, 1.8 CaCl2, 5 CsCl, 5 KCl, 25 D-glucose, 5 HEPES, 0.1 CdCl2, and TEA-Cl (pH 7.4 with NaOH), and the pipette solution contains (in mM) 135 CsCl, 10 NaCl, and 5 HEPES (pH 7.4 with CsOH). The Nav current program is recorded following the above method. […]

T1 sequence (Q15858 whole entry Y1548A/F1609A): as the sequence (Q15858 whole entry Y1548A/V1552A/M1593A) above, with A1552V, A1593M, F1609A counted along it
T1 sequence (Q07699 19-218 partner): as the sequence (Q07699 19-218 partner) above
T1 sequence (O60939 30-215 partner): as the sequence (O60939 30-215 partner) above

Cc1ccc(Cn2cc([C@H](CC(=O)NCCN(C)C)c3ccc(F)cc3)c3ccccc32)cc1 [WN2-R]
Effect of the mutation on antagonistic activity [1]: minimal effects
Effect of the mutation on antagonistic activity [2]: minimal effects
Action potential (AP) firing in response to depolarizing currents [3]: markedly reduced
